According to the supplement of paper PMC12076712:

Columns and labels:
Test in all cases: pIC50, kinobeads binding competition
MAP4K3 = target: T1, MAP4K3 (UniProt Q8IVH8)
T1 sequence (whole entry): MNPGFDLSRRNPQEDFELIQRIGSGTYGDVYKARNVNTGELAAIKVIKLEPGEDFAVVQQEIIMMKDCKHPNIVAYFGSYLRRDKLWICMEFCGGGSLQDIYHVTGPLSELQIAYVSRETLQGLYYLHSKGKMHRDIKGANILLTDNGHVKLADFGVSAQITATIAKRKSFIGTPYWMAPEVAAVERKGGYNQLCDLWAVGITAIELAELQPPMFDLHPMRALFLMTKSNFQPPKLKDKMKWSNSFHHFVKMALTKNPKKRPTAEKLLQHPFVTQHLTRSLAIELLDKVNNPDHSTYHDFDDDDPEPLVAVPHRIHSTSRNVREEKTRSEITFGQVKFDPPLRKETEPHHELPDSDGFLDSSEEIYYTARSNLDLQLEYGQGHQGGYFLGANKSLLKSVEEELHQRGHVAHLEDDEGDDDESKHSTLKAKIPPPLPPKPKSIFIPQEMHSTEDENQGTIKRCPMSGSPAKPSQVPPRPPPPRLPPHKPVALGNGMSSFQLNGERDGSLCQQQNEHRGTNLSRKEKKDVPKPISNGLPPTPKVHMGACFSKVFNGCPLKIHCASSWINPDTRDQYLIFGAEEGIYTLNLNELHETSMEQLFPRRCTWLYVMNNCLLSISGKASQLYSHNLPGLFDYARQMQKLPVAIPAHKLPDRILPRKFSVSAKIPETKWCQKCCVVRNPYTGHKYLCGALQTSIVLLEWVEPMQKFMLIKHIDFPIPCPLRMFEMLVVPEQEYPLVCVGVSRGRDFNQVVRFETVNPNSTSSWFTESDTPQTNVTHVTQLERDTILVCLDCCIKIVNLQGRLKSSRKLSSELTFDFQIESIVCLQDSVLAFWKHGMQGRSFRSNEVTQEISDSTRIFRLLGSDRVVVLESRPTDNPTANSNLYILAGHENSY
Method in brief: (§1)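 Fold changes relative to vehicle, from biological duplicates, were fitted with logistic dose-response models in the R drc package to give pIC50. These fold changes came from TMT10 LC-MS/MS quantification of digested Kinobeads-bound proteins. Compound was applied at nine concentrations (top 30 μM) either to live Jurkat cells in 1:4 steps for 60 min at 37 °C before lysis, or to Jurkat lysate or a 1:1:1:1 HEK293/K-562/HepG2/placenta lysate mix in 1:5 steps for 60 min at 4 °C.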

UniProt P45983 = target: UniProt P45983
UniProt P45983, sequence (P45983 whole entry): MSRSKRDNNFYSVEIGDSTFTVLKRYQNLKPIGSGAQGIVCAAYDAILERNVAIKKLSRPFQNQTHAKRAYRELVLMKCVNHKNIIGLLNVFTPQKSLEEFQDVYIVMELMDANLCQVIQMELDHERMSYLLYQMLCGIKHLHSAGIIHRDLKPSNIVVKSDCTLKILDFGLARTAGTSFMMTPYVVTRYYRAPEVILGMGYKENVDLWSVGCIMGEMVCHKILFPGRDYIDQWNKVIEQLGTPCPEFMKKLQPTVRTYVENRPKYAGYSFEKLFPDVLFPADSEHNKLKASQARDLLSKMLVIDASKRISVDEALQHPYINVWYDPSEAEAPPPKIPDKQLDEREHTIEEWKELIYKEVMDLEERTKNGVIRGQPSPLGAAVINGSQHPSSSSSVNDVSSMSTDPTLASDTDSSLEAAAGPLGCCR
Method in brief: as §1

EIF2AK4 = EIF2AK4 (UniProt Q9P2K8)
EIF2AK4, sequence (Q9P2K8 whole entry): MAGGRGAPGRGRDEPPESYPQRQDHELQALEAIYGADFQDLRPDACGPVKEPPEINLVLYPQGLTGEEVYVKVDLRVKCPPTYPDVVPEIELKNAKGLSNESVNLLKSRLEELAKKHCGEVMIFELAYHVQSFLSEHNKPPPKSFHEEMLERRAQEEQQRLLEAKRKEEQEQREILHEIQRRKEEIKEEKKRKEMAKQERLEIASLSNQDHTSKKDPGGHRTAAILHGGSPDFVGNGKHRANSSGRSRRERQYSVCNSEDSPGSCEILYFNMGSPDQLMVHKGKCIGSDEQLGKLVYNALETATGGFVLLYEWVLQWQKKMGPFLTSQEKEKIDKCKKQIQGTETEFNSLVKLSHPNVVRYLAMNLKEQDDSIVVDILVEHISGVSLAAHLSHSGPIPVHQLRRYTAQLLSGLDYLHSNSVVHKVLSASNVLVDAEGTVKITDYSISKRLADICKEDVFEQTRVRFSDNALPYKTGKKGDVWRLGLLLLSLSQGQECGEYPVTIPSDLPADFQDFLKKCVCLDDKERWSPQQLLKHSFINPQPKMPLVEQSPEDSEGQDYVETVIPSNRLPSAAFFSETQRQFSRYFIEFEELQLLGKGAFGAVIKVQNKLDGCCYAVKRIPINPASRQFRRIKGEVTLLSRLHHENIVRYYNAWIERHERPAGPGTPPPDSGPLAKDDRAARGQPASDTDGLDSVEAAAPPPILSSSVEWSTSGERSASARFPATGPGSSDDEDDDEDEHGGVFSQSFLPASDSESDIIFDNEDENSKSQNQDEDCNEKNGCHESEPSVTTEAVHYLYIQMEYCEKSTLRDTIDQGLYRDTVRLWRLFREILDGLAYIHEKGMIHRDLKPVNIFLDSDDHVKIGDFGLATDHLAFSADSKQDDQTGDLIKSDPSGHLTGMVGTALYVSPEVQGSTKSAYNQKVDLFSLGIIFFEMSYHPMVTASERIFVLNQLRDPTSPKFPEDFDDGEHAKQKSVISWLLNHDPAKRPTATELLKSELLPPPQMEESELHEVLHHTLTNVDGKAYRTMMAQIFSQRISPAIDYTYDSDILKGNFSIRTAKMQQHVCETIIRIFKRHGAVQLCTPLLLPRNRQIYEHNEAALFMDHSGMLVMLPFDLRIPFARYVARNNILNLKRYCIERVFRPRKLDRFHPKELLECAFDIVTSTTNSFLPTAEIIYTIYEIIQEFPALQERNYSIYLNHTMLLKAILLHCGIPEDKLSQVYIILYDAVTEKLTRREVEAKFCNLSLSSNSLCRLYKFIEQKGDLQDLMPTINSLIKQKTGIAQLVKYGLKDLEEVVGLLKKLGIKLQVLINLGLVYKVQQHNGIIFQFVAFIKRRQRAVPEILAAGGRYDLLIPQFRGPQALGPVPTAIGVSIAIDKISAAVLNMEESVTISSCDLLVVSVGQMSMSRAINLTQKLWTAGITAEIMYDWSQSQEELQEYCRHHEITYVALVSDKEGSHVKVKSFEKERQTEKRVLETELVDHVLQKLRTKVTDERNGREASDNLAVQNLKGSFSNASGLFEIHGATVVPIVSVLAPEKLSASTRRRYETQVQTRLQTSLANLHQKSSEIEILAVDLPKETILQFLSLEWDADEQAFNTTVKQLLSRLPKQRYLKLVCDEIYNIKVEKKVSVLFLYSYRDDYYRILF
Method in brief: as §1

TESK1 = TESK1 (UniProt Q15569)
TESK1, sequence (Q15569 whole entry, looked up): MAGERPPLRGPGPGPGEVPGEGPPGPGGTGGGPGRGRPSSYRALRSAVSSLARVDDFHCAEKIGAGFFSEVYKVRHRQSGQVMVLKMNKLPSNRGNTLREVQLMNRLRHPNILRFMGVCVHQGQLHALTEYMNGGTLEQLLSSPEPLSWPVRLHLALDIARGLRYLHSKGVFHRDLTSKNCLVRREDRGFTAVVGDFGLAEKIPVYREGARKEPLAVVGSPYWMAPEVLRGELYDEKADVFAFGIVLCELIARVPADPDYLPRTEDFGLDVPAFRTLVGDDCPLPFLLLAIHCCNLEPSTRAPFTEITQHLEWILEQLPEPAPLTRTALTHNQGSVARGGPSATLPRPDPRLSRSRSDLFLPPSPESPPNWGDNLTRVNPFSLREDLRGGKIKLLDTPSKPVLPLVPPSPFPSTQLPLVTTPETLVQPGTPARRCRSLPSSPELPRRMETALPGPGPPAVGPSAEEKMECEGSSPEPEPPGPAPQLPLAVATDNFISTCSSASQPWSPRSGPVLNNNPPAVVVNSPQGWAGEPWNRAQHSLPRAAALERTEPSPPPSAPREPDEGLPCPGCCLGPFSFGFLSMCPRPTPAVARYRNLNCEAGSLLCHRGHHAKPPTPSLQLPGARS
Method in brief: as §1

NEK3 = target: T2, NEK3 (UniProt P51956)
T2 sequence (whole entry): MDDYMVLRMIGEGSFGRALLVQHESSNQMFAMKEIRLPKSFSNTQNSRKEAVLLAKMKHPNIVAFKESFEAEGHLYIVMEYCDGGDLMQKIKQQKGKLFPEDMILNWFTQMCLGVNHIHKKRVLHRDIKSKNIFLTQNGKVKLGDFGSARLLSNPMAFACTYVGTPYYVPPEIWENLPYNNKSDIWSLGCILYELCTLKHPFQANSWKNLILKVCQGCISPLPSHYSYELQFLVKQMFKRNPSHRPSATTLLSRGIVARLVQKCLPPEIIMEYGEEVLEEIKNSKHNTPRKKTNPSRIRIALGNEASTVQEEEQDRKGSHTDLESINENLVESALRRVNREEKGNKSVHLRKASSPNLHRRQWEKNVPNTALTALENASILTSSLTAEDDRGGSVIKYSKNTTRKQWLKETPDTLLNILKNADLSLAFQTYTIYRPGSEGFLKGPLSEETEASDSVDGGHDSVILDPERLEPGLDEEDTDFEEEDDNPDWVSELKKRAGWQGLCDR
Method in brief: as §1

MYLK3 = target: T3, MYLK3 (UniProt Q32MK0); conditions: cell material: Lysate mix
T3 sequence (whole entry): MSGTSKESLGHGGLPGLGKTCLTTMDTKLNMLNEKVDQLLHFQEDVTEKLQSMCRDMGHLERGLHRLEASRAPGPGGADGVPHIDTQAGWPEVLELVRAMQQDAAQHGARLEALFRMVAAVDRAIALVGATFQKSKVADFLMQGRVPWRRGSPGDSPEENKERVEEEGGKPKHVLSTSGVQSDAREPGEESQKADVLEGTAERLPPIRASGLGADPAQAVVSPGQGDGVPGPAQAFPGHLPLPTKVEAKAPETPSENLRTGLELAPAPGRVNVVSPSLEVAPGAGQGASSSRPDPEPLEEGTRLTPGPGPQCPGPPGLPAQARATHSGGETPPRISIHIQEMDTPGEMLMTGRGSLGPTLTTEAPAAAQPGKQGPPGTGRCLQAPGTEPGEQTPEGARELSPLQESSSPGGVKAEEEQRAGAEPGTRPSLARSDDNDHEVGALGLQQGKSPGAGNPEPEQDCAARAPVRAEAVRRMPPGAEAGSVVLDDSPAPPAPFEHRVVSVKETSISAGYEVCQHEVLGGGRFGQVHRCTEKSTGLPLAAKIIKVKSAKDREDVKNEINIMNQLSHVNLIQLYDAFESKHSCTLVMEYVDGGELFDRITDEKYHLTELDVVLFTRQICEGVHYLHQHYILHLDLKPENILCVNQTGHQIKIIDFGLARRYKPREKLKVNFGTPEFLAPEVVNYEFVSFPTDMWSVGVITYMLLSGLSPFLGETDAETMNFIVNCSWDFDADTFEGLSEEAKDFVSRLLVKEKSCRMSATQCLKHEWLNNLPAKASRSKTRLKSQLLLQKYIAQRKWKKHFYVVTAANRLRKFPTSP
Method in brief: as §1

UniProt O75582 = target: UniProt O75582
UniProt O75582, sequence (O75582 whole entry, looked up): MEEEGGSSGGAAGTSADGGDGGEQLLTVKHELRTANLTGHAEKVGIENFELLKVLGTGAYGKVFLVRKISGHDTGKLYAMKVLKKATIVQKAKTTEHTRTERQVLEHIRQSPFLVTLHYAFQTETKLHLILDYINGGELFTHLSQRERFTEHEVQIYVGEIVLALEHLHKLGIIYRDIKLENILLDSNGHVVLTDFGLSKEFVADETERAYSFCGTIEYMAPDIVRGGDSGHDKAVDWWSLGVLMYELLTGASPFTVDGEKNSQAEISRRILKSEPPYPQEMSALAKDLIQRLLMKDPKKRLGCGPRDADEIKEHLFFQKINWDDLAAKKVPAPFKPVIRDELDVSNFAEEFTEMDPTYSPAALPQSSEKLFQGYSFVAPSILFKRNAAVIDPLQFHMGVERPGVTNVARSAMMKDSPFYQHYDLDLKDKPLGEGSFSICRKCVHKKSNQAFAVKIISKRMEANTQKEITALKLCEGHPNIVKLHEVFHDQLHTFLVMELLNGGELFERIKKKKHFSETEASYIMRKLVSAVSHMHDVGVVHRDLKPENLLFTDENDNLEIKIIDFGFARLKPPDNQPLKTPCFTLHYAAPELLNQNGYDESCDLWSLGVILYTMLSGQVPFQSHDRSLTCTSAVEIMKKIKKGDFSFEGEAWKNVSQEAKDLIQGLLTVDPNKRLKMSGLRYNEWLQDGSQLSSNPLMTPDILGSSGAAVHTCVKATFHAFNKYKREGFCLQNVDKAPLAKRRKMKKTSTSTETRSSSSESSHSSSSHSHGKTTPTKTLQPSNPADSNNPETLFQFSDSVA
Method in brief: as §1

SMILES | pIC50 (MAP4K3; cell material: Jurkat cells) | pIC50 (MAP4K3; cell material: Jurkat lysate) | pIC50 (MAP4K3; cell material: Lysate mix) | pIC50 (UniProt P45983; cell material: Jurkat cells) | pIC50 (UniProt P45983; cell material: Jurkat lysate) | pIC50 (UniProt P45983; cell material: Lysate mix) | pIC50 (EIF2AK4; cell material: Jurkat cells) | pIC50 (EIF2AK4; cell material: Jurkat lysate) | pIC50 (EIF2AK4; cell material: Lysate mix) | pIC50 (TESK1; cell material: Jurkat lysate) | pIC50 (TESK1; cell material: Lysate mix) | pIC50 (NEK3; cell material: Jurkat lysate) | pIC50 (NEK3; cell material: Lysate mix) | pIC50 (MYLK3) | pIC50 (UniProt O75582; cell material: Jurkat cells) | pIC50 (UniProt O75582; cell material: Jurkat lysate) | pIC50 (UniProt O75582; cell material: Lysate mix) | pIC50 (TESK1; cell material: Jurkat cells) | pIC50 (NEK3; cell material: Jurkat cells)
C#CCNC(=O)c1cc(Nc2cc(C3CC3)[nH]n2)nc(N2CCN(Cc3ccc(S(=O)(=O)F)cc3)CC2)n1 | 6.02 | 4.77 | 5.43 | 5.34 | < 4.52 | 4.72 | 6.08 | 4.63 | 5.44 | < 4.52 | < 4.52 | 4.66 | 5.7 | < 4.52 | 6 | 4.7 | 5.6 | – | –
C#CCNC(=O)c1cc(Nc2cc(C)[nH]n2)nc(N2CCN(Cc3ccc(S(=O)(=O)F)cc3)CC2)n1 | – | – | 4.65 | – | – | 4.6 | – | – | 5.15 | – | < 4.52 | – | < 4.52 | < 4.52 | – | – | 5.11 | – | –
Cc1cc(Nc2cc(C(=O)NCCNC(=O)OC3CC/C=C/CCC3)nc(N3CCN(Cc4ccc(S(=O)(=O)F)cc4)CC3)n2)n[nH]1 (stereo not drawn) | – | – | < 4.52 | – | – | < 4.52 | – | – | < 4.52 | – | < 4.52 | – | < 4.52 | < 4.52 | – | – | < 4.52 | – | –
O=C(NCCNC(=O)c1cc(Nc2cc(C3CC3)[nH]n2)nc(N2CCN(Cc3ccc(S(=O)(=O)F)cc3)CC2)n1)OC1CC/C=C/CCC1 (stereo not drawn) | 5.15 | < 4.52 | < 4.52 | 4.88 | < 4.52 | < 4.52 | 5.62 | < 4.52 | < 4.52 | < 4.52 | < 4.52 | – | < 4.52 | < 4.52 | 5.6 | < 4.52 | < 4.52 | < 4.52 | 5.56
CCNC(=O)c1cc(Nc2cc(C)[nH]n2)nc(N2CCN(Cc3ccc(S(=O)(=O)F)cc3)CC2)n1 | – | – | < 4.52 | – | – | 4.64 | – | – | 4.98 | – | < 4.52 | – | < 4.52 | < 4.52 | – | – | 4.83 | – | –
CCNC(=O)c1cc(Nc2cc(C3CC3)[nH]n2)nc(N2CCN(Cc3ccc(S(=O)(=O)F)cc3)CC2)n1 | – | – | 5.11 | – | – | 4.65 | – | – | 5.35 | – | < 4.52 | – | 5.46 | 4.69 | – | – | 5.35 | – | –
